From ChEMBL document CHEMBL5584240, “Evaluation of potency and metabolic stability of diphyllin-derived Vacuolar-ATPase inhibitors” (Eur J Med Chem, 2024) come the findings set out here.

One series relates to HEK293. Nature of the series: Cytotoxicity against HEK293 cells incubated for 72 hrs by MTT assay. It counts as toxicity, cell-based. Conditions: human, hek293, 72 h. (Tetrazolium assays rely on reduction of a dye to a coloured formazan, in cell work by metabolically active cells.)
Series [1] can be described thus: AUC (infinity) in CD-1 mouse at 50 mg/kg, po by LC-MS/MS analysis. It counts as ADME, organism-based. To be noted: in vivo.
The test system of series [2] is Ebolavirus. Description: Antiviral activity against recombinant Ebola virus Mayinga expressing GFP infected in human primary macrophages assessed as reduction in infectivity pretreated for 1 hr followed by viral infection measured after 24 to 48 hrs by imaging analysis. In kind it is functional, organism-based. To be noted: Orthoebolavirus, Primary macrophage.
Series [3] in a line: Apparent oral clearance in CD-1 mouse at 50 mg/kg, po by LC-MS/MS analysis. In kind it is ADME, organism-based. Conditions: in vivo.
For series [4], the system named is Ebolavirus. Nature of the series: Antiviral activity against recombinant Ebola virus Mayinga expressing GFP infected in human HeLa cells with ATP6V0a2 KO assessed as reduction in viral entry into cells pretreated for 1 hr followed by viral infection measured after 24 to 48 hrs by imaging analysis. It counts as functional, organism-based. To be noted: Orthoebolavirus.

Series [5] can be described thus: Apparent volume of distribution during terminal phase in CD-1 mouse at 50 mg/kg, po by LC-MS/MS analysis. Conditions: in vivo, read-out: Vz/F. In kind it is ADME, organism-based.
Series [6] can be described thus: AUC (0.25 to 24 hrs) in CD-1 mouse at 50 mg/kg, po by LC-MS/MS analysis. It counts as ADME, organism-based. Conditions: in vivo.
The nature of series [7]: Selectivity index, ratio of CC50 for human primary macrophages to EC50 for recombinant Ebola virus Mayinga expressing GFP infected in human primary macrophages. It counts as toxicity. Conditions: read-out: Ratio CC50/EC50.
The nature of series [8]: Cmax in CD-1 mouse at 50 mg/kg, po by LC-MS/MS analysis. In kind it is ADME, organism-based. To be noted: in vivo.
Series [9] is described as follows: MRT in CD-1 mouse at 50 mg/kg, po by LC-MS/MS analysis. It counts as ADME, organism-based. To be noted: in vivo.
Series [10] can be described thus: Selectivity index, ratio of CC50 for HEK293 cells to EC50 for recombinant Ebola virus Mayinga expressing GFP infected in human HeLa cells with ATP6V0a2 KO. In kind it is toxicity, cell-based. Conditions: read-out: Ratio CC50/EC50.
The nature of series [11]: Tmax in CD-1 mouse at 50 mg/kg, po by LC-MS/MS analysis. In kind it is ADME, organism-based. To be noted: in vivo.
The target in series [12] is Voltage-gated inwardly rectifying potassium channel KCNH2 (Homo sapiens, UniProt Q12809). Nature of the series: Inhibition of hERG at 10 uM relative to control. It counts as toxicity.
Series [13] can be described thus: Half life in CD-1 mouse at 50 mg/kg, po by LC-MS/MS analysis. It counts as ADME, organism-based. To be noted: in vivo.
Series [14] concerns A549. Description: Induction of phospholipidosis in NBD-PE-treated human A549 cells at 1 uM incubated for 24 hrs by imaging based analysis. It counts as functional, cell-based.
The nature of series [15]: Oral bioavailability in ICR mouse at 75 mg/kg by LC-MS/MS analysis. It counts as ADME, organism-based. Conditions: in vivo.
For series [16], the system named is A549. Nature of the series: Induction of phospholipidosis in NBD-PE-treated human A549 cells at 5 to 10 uM incubated for 24 hrs by imaging based analysis. It counts as functional, cell-based. To be noted: dose 5-10 µM.
Series [17] concerns A549. Nature of the series: Induction of phospholipidosis in NBD-PE-treated human A549 cells at 10 uM incubated for 24 hrs by imaging based analysis. It counts as functional, cell-based.

In general, CC50 refers to the concentration that lowers cell viability or growth by half. Low readings indicate harm at low concentration, high ones better tolerance by the cells. Usually AUC stands for the area under the concentration-time curve, a measure of exposure. A high value points to high exposure. By EC50 is commonly meant the concentration giving half of the maximal effect. For orientation: CL/F means clearance divided by bioavailability, as obtained after extravascular dosing. The AUC(0-t) is exposure summed from dosing to a finite time, without extrapolation to infinity. A lower AUC(0-t) goes with low exposure. By Cmax is commonly meant the peak of the concentration-time curve. By MRT is commonly meant the average time that molecules of a dose stay in the body. As usually defined, the Tmax is the time from dosing to the highest level. By bioavailability is commonly meant dose-corrected exposure relative to a reference, in per cent.

Calls of active or inactive are those of the source. The rule behind the calls is not given here. Bounds are passed on as bounds.

Voltage-gated inwardly rectifying potassium channel KCNH2, sequence (Q12809 whole entry): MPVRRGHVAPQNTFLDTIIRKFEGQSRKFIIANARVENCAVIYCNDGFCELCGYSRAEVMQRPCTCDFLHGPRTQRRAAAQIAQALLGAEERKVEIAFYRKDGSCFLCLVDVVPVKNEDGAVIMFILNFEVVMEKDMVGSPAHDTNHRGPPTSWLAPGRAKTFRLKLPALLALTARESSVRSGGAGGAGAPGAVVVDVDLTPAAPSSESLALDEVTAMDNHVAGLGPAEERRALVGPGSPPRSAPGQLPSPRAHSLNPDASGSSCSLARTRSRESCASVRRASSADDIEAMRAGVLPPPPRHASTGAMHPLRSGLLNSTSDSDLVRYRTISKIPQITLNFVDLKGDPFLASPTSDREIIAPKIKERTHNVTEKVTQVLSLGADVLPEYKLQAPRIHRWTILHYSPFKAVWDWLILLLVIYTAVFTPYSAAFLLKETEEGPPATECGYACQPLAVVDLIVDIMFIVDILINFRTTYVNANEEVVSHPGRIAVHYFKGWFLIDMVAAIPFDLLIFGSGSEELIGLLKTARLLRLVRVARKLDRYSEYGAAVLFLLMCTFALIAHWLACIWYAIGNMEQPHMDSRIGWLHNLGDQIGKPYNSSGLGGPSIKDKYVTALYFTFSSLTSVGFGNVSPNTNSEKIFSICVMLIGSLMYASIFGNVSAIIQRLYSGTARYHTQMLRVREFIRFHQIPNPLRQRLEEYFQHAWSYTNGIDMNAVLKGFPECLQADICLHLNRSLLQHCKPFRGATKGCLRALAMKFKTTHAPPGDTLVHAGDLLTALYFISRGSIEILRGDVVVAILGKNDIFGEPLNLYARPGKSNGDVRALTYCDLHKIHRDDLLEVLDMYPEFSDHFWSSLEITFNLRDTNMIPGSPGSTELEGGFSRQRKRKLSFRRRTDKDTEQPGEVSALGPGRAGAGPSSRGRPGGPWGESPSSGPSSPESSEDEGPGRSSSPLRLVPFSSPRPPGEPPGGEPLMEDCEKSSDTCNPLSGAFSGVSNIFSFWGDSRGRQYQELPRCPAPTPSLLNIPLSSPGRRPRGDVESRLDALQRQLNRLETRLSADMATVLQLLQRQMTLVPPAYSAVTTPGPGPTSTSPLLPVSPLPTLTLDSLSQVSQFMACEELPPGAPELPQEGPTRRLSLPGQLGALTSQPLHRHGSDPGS

`COc1cc2c(OC3CCOC3)c3c(c(-c4ccc5c(c4)OCO5)c2cc1OC)C(=O)OC3` (configuration not stated) registered a CC50 in the series with HEK293 of more than 80000 nM. This molecule returned an area under the curve (AUC) in [1] of 16.455 µM·h. In addition, the EC50 in the series with Ebolavirus [2] turned out to be 107 nM; in the series with Ebolavirus [4], 40 nM. For the same molecule, the CL/F in series [3] was 2.25 mL/min. In addition, in series [5], the Vd/F stood at 2.63 L. This molecule came in with an AUC(0-t) in series [6] of 12 µM·h. Further, the selectivity ratio in [7] was 132; in series [10], 87. In addition, the concentration in series [8] peaked (Cmax) at 1250 nM. The molecule also displayed an MRT in series [9] of 18 h. Besides, the Tmax in series [11] was determined as 0.5 h. Further, the “inhibition (INH)” value in series [12] is on record as 30%. Moreover, the t1/2 in series [13] turned out to be 13.5 h.
The molecule `COc1cc2c(OCCCN3CCS(=O)(=O)CC3)c3c(c(-c4ccc5c(c4)OCO5)c2cc1OC)C(=O)OC3` showed a CC50 in the series on HEK293 of more than 80000 nM. In addition, the EC50 came to 180 nM with Ebolavirus [2] and 117 nM in the series with Ebolavirus [4]. Moreover, the outcome in the series with A549 [14] was inactive. For the same molecule, the results for the selectivity ratio in series [7] and in series [10] were 138 and more than 240, respectively. The “inhibition (INH)” value in series [12] is 21%.
In the series with HEK293, `COc1cc2c(OC3CCNCC3)c3c(c(-c4ccc5c(c4)OCO5)c2cc1OC)C(=O)OC3` showed a CC50 of more than 80000 nM. This molecule also yielded an AUC in series [1] of 2.532 µM·h. For the same molecule, the CL/F in [3] was 14.1 mL/min. The EC50 in the series on Ebolavirus [4] is 32 nM. Also, the Vd/F in series [5] came to 105 L. In series [6], the AUC(0-t) amounted to 0.636 µM·h. In [8], the Cmax turned out to be 151 nM. Besides, the MRT in [9] was determined as 113 h. For the same molecule, the selectivity ratio in series [10] was determined as 510. In series [11], the Tmax came to 2 h. Besides, the “inhibition (INH)” value in [12] was 80%. Also, in series [13], the t1/2 amounted to 86.2 h.
For `COc1cc2c(OCCCN3CCN(C)C(=O)C3)c3c(c(-c4ccc5c(c4)OCO5)c2cc1OC)C(=O)OC3`, in the series on HEK293, the CC50 is more than 80000 nM. For the same molecule, the EC50 with Ebolavirus [2] was found to be 167 nM; in the series on Ebolavirus [4], 74 nM. Further, in the series on A549 [14], the result was inactive. Also, the selectivity ratio in [7] is more than 150; in series [10], more than 340. Also, in series [12], the “inhibition (INH)” value is 9%.
Consider `COc1cc2c(O[C@@H]3O[C@H](CO)[C@@H]4OC(C)(C)O[C@@H]4[C@H]3O)c3c(c(-c4ccc5c(c4)OCO5)c2cc1OC)C(=O)OC3`, for which the bioavailability in [15] was 2.5%.
Consider `COc1cc2c(O[C@@H]3O[C@H](C)[C@@H](O)[C@H](O)[C@H]3O)c3c(c(-c4ccc5c(c4)OCO5)c2cc1OC)C(=O)OC3` [PATENTIFLORIN A], for which the CC50 with HEK293 is more than 80000 nM. Also, the EC50 with Ebolavirus [2] is 85 nM; in the series with Ebolavirus [4], 428 nM. Also, the selectivity ratio in series [7] was 295; in [10] it was more than 59. In series [8], this molecule yielded a Cmax of 101 nM. In addition, the Tmax in [11] was 0.25 h. Further, in series [12], the “inhibition (INH)” value is given as less than 5%.
As to `CCCCc1oc2ccccc2c1C(=O)c1cc(I)c(OCCN(CC)CC)c(I)c1`, in the series on A549 [16], the outcome was Active.
On to `COc1cc2c(OCCCN3CC4CCC3CO4)c3c(c(-c4ccc5c(c4)OCO5)c2cc1OC)C(=O)OC3` (configuration not stated), for which half-maximal cytotoxicity with HEK293 (CC50) was put at 80000 nM. The EC50 in the series on Ebolavirus [2] worked out at 19 nM; in the series with Ebolavirus [4], 28 nM. Moreover, the selectivity ratio in [7] was 319; in series [10], more than 1200. Also, in series [12], the “inhibition (INH)” value was 54%.
`COc1cc2c(OCCN3CCN(C)CC3)c3c(c(-c4ccc5c(c4)OCO5)c2cc1OC)C(=O)OC3` had a CC50 with HEK293 of more than 80000 nM. Besides, the EC50 is 30 nM in the series with Ebolavirus [2] and 36 nM in the series on Ebolavirus [4]. The selectivity ratio in series [7] came out at 170; in series [10] it was 300. Moreover, the “inhibition (INH)” value in series [12] was 79%.
`COc1cc2c(OCCCC#N)c3c(c(-c4ccc5c(c4)OCO5)c2cc1OC)C(=O)OC3` yielded a CC50 in the series on HEK293 of more than 80000 nM. In [1], this molecule gave an AUC of 7.191 µM·h. Moreover, the CL/F in series [3] was 5.18 mL/min. Further, the EC50 with Ebolavirus [4] was 37 nM. Besides, the Vd/F in series [5] worked out at 2.85 L. The AUC(0-t) in [6] is 6.86 µM·h. Moreover, the Cmax in series [8] came to 3560 nM. Also, the MRT in series [9] is 5.9 h. The selectivity ratio in [10] turned out to be 130. Besides, the Tmax in series [11] came out at 0.5 h. In addition, the “inhibition (INH)” value in series [12] came to 24%. In series [13], this molecule registered a t1/2 of 6.4 h.
As to `COc1cc2c(O)c3c(c(-c4ccc5c(c4)OCO5)c2cc1OC)C(=O)OC3` [DIPHYLLIN], in the series with A549 [17], the outcome was inactive. Moreover, in the series with HEK293, the CC50 is more than 80000 nM. In addition, the EC50 with Ebolavirus [4] worked out at 1090 nM.
